One assay deals with MOLM14. It counts as cell-based. To be noted: Homo sapiens.
The next assay concerns MOLM14-D835Y. It counts as cell-based.
The next assay has as its system K562. It counts as cell-based. To be noted: Homo sapiens.
A further assay deals with KCL22. It counts as cell-based. To be noted: Homo sapiens.
A further assay has as its system KCL22-IR. It counts as cell-based. To be noted: read-out: IC50 KCL22-IR.
The next assay relates to MOLM14-F691L. It counts as cell-based. To be noted: Homo sapiens.
The target of a further assay is c-SRC (Homo sapiens, UniProt P12931). Nature of the assay: Kinase IC50 at Reaction Biology. The format is biochemical.
In another assay the test system is MV-4-11. It counts as cell-based. To be noted: Homo sapiens.
The next assay has as its system MOLM13-res. It counts as cell-based. The note with it: read-out: IC50 MOLM13-res.
The subject of another assay is H520. The format is cell-based. The note with it: Homo sapiens.
In another assay the test system is LC2/Ad. Nature of the assay: cells. To be noted: Homo sapiens, LC-2-ad, read-out: IC50 LC2/Ad.
Where [1] appears, read: cell activities of other nicotinamide compounds, MOLM-14, read-out: IC50 MOLM-14.
The mark [2] stands for this setting: Homo sapiens, cell activities of other nicotinamide compounds, MOLM-14 (ITD, D85Y), read-out: IC50 MOLM-14 (ITD, D85Y).
Where [3] appears, read: cell activities of other nicotinamide compounds, K562, read-out: IC50 K562.
[4] abbreviates: KCL-22, cell activities of other nicotinamide compounds, KCL22, read-out: IC50 KCL22.
Setting [5] is: cell activities of other nicotinamide compounds, KCL22-IR.
Setting [6] is: cell activities of other nicotinamide compounds, MOLM-14 (ITD, F691L), read-out: IC50 MOLM-14 (ITD, F691L).

Each structure is given as a SMILES string. Where two headings read alike, the source gives them in different places.

c-SRC, sequence (P12931 whole entry): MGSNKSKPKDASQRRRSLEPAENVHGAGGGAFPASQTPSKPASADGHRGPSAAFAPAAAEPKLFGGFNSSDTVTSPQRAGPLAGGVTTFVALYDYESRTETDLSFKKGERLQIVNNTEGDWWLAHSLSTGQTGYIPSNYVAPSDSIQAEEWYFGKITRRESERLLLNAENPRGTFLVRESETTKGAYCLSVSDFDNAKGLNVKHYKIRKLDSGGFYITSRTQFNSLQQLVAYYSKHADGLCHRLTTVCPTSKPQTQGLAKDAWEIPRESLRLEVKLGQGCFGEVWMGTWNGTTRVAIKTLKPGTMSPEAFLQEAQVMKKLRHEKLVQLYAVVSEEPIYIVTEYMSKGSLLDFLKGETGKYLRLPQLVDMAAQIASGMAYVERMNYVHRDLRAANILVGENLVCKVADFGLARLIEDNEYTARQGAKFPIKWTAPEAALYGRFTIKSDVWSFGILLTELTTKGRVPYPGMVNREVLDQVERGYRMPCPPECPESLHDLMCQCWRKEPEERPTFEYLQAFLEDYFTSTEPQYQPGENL

Take `CN1CCN(Cc2ccc(C(=O)Nc3cncc(C#Cc4cnc5cccnn45)c3)cc2C(F)(F)F)CC1` [HSL338, N-(5-(imidazo[1,2-b]pyridazin-3-ylethynyl)pyridin-3-yl)-4-((4-methylpiperazin-1-yl)methyl)-3-(trifluoromethyl)benzamide]: the IC50 with MOLM14 (setting [1]) was found to be 0.075 ± 0.0005 nM; in the assay on MOLM14-D835Y (setting [2]) it was 7.4 ± 0.04 nM; in the assay on K562 (setting [3]), 0.45 ± 0.002 nM; in the assay with KCL22 (setting [4]) it was 1.4 ± 0.02 nM; in the assay on KCL22-IR (setting [5]), 4.2 ± 0.04 nM.
In the case of `CN1CCN(Cc2ccc(NC(=O)c3cncc(C#Cc4cnc5ccccn45)c3)cc2C(F)(F)F)CC1` [HSL381, 5-(imidazo[1,2-a]pyridin-3-ylethynyl)-N-(4-((4-methylpiperazin-1-yl)methyl)-3-(trifluoromethyl)phenyl)nicotinamide], the IC50 was 0.04 ± 0.006 nM in the assay on MOLM14 (setting [1]); 7.12 ± 0.06 nM with MOLM14-D835Y (setting [2]); 0.55 ± 0.06 nM in the assay on MOLM14-F691L (setting [6]); 0.57 ± 0.003 nM in the assay on K562 (setting [3]); 0.89 ± 0.005 nM with KCL22 (setting [4]); 4.24 ± 0.05 nM with KCL22-IR (setting [5]).
Take `CN1CCN(Cc2ccc(NC(=O)c3cncc(C#Cc4cnc5ncccn45)c3)cc2C(F)(F)F)CC1` [HSL382, 5-(imidazo[1,2-a]pyrimidin-3-ylethynyl)-N-(4-((4-methylpiperazin-1-yl)methyl)-3-(trifluoromethyl)phenyl)nicotinamide]: the IC50 is 5.15 ± 0.09 nM with MOLM14 (setting [1]); more than 100 nM in the assay on MOLM14-D835Y (setting [2]); more than 100 nM with MOLM14-F691L (setting [6]); more than 100 nM with K562 (setting [3]); more than 100 nM in the assay with KCL22 (setting [4]); more than 100 nM with KCL22-IR (setting [5]).
`CN1CCN(Cc2ccc(NC(=O)c3cncc(C#Cc4cnc5cnccn45)c3)cc2C(F)(F)F)CC1` [HSL385, 5-(imidazo[1,2-a]pyrazin-3-ylethynyl)-N-(4-((4-methylpiperazin-1-yl)methyl)-3-(trifluoromethyl)phenyl)nicotinamide]: the IC50 in the assay on MOLM14 (setting [1]) was 0.15 ± 0.007 nM; in the assay with MOLM14-D835Y (setting [2]) it was 28.5 ± 0.9 nM; with K562 (setting [3]) it was 0.94 ± 0.002 nM; with KCL22 (setting [4]) it was 2.62 ± 0.06 nM; in the assay on KCL22-IR (setting [5]) it was 17.2 ± 0.8 nM.
`CN1CCN(Cc2ccc(NC(=O)c3cncc(C#Cc4cncc5nccn45)c3)cc2C(F)(F)F)CC1` [HSL407, 5-(imidazo[1,2-a]pyrazin-5-ylethynyl)-N-(4-((4-methylpiperazin-1-yl)methyl)-3-(trifluoromethyl)phenyl)nicotinamide]: the IC50 with MOLM14-D835Y (setting [2]) came out at 42.9 ± 0.7 nM; in the assay on MOLM14-F691L (setting [6]) it was 6.87 ± 0.13 nM; in the assay on K562 (setting [3]), 1.83 ± 0.02 nM; with KCL22 (setting [4]) it was 2.93 ± 0.04 nM; with KCL22-IR (setting [5]) it was 49.7 ± 2.5 nM.
Consider `CN1CCN(Cc2ccc(NC(=O)c3cncc(C#Cc4cnc5ccnn5c4)c3)cc2C(F)(F)F)CC1` [HSL412, N-(4-((4-methylpiperazin-1-yl)methyl)-3-(trifluoromethyl)phenyl)-5-(pyrazolo[1,5-a]pyrimidin-6-ylethynyl)nicotinamide], for which the IC50 in the assay with MOLM14-D835Y (setting [2]) is more than 100 nM; in the assay with MOLM14-F691L (setting [6]) it was 17.8 ± 1.3 nM; in the assay with K562 (setting [3]), 28.1 ± 0.6 nM; in the assay on KCL22 (setting [4]), 28.1 ± 0.4 nM.
As for `Cc1ncc(C(=O)Nc2ccc(CN3CCN(C)CC3)c(C(F)(F)F)c2)cc1C#Cc1cnc2cccnn12` [HSL420, 5-(imidazo[1,2-b]pyridazin-3-ylethynyl)-6-methyl-N-(4-((4-methylpiperazin-1-yl)methyl)-3-(trifluoromethyl)phenyl)nicotinamide], the IC50 was 2.24 ± 0.08 nM in the assay with MOLM14-D835Y (setting [2]); 0.57 ± 0.004 nM in the assay with MOLM14-F691L (setting [6]); 0.059 ± 0.002 nM in the assay on K562 (setting [3]); 0.06 ± 0.002 nM in the assay with KCL22 (setting [4]); 0.46 ± 0.01 nM with KCL22-IR (setting [5]).
For the molecule `CN1CCN(Cc2ccc(NC(=O)c3cncc(C#Cc4cnc5cccnn45)c3)cc2C(F)(F)F)CC1` [HSN748, 5-(imidazo[1,2-b]pyridazin-3-ylethynyl)-N-(4-((4-methylpiperazin-1-yl)methyl)-3-(trifluoromethyl)phenyl)nicotinamide], the IC50 on c-SRC ([ATP] = 100 μM, read-out: IC50 c-SRC) is more than 1000 nM; on c-SRC (read-out: IC50 c-Src kinase), more than 1000 nM; in the assay on MV-4-11 (MV4-11, growth inhibition, MV-4-11 (FLT3) cell line, read-out: IC50 MV-4-11), 0.07 nM; in the assay with MOLM13-res (growth inhibition, MOLM13-res cell line), 1.73 nM; in the assay with MOLM14 (MOLM-14, growth inhibition, MOLM14 cell line, read-out: IC50 MOLM14) it was 0.05 nM; with MOLM14-D835Y (growth inhibition, quizartinib-resistant AML cell line, read-out: IC50 MOLM14-D835Y), 0.69 nM. Besides, the IC50 turned out to be 0.18 nM in the assay with MOLM14-F691L (MOLM-14, growth inhibition, gilteritinib-resistant AML cell line Molm14 (ITD, F691L), read-out: IC50 MOLM14-F691L); 0.8 nM in the assay on K562 (growth inhibition, K562 (ABL1) cell line, read-out: IC50 K562); 1.32 nM in the assay on KCL22 (KCL-22, growth inhibition, KCL22 cell line, read-out: IC50 KCL22); 0.23 nM with KCL22-IR (growth inhibition, KCL22-IR cell line); 839 nM with H520 (NCI-H520, growth inhibition, H520 cell line, read-out: IC50 H520).
Take `Cc1ccc(C(=O)Nc2ccc(CN3CCN(C)CC3)c(C(F)(F)F)c2)cc1C#Cc1cnc2cccnn12` [Ponatinib, reference compound]: the IC50 in the assay on MV-4-11 (MV4-11, read-out: IC50 MV-4-11) amounted to 0.09 nM; in the assay with MOLM13-res, 24.1 nM; with MOLM14 (MOLM-14, read-out: IC50 MOLM14), 0.45 nM; in the assay on MOLM14-D835Y (read-out: IC50 MOLM14-D835Y), 52.6 nM; in the assay with MOLM14-F691L (MOLM-14, read-out: IC50 MOLM14-F691L), 6.8 nM; in the assay on K562 (K562, read-out: IC50 K562) it was 0.6 nM. Also, the IC50 in the assay with KCL22 (KCL-22, read-out: IC50 KCL22) stood at 0.14 nM; with KCL22-IR, 0.66 nM; with H520 (NCI-H520, read-out: IC50 H520), 128 nM; with LC2/Ad it was 35.1 nM.

These data come from patent US20220089599A1, “ALKYNYL NICOTINAMIDE COMPOUNDS AS KINASE INHIBITORS” (PURDUE RESEARCH FOUNDATION, priority 2018, published 2022).
